These results are taken from patent US8906925B2, “Pyrido[4,3-B]indoles containing rigid moieties” (Medivation Technologies, Inc., priority 2008, dated 2014).

Several values for one entry are separate records, joined by “and”; a condition that tells them apart may be missing. Equal entries are not always repeated. Where two headings read alike, the source gives them in different places.

One test addresses histamine receptor H1 (Homo sapiens, UniProt P35367). In words: Histamine H1 radioligand binding ([3H]Pyrilamine). As to conditions: for inhibition at 1 µM: read-out: Histamine Binding (1 μM) H1, percent inhibition of specific binding, 1 μM. A digest of the protocol: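 Values are percent inhibition of specific [3H]pyrilamine (1.2 nM) binding with compounds at ≤1 μM (1% DMSO vehicle); 180 min incubation at 25 °C, pH 7.4 Tris buffer, on CHO-expressed human H1 receptor; 1 μM pyrilamine defined nonspecific binding, bound ligand counted after filtration.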

Test [1] has as its target T1, human recombinant histamine H2 receptor (Homo sapiens, UniProt P25021).
T1 construct: expressed in transfected cells; host or cells: Chinese hamster ovary (CHO) K1 cells
In words: Histamine H2 radioligand binding ([125I]Aminopotentidine). As to conditions: read-out: Histamine Binding (1 μM) H2, percent inhibition of specific binding, 1 μM. On the procedure:
To evaluate in radioligand binding assays the activity of compounds of the invention, human recombinant histamine H2 receptor expressed in Chinese hamster ovary (CHO) K1 cells (Ruat, M., Proc. Natl. Acad. Sci. USA. 87(5):1658, 1990) in a 50 mM Phosphate buffer, pH 7.4 was used. Compounds of the invention were incubated with 0.1 nM [^125I]Aminopotentidine for 120 min. at 25° C. Non-specific binding was estimated in the presence of 3 μM Tiotidine. Receptor proteins were filtered and washed, the filters were then counted to determine [^125I]Aminopotentidine specifically bound.

The target in test [2] is human dopamine D2L receptor (Homo sapiens, UniProt P14416). In words: Dopamine D2L radioligand binding ([3H]Spiperone). As to conditions: compound at 1 μM. The text has this: Non-specific binding was estimated in the presence of […] Haloperidol. Receptor proteins were filtered and washed, the filters were then counted to determine [^3H]Spiperone specifically bound. […] Biochemical assay results are presented as the percent inhibition of specific binding in Table 9.
human dopamine D2L receptor, sequence (P14416 whole entry): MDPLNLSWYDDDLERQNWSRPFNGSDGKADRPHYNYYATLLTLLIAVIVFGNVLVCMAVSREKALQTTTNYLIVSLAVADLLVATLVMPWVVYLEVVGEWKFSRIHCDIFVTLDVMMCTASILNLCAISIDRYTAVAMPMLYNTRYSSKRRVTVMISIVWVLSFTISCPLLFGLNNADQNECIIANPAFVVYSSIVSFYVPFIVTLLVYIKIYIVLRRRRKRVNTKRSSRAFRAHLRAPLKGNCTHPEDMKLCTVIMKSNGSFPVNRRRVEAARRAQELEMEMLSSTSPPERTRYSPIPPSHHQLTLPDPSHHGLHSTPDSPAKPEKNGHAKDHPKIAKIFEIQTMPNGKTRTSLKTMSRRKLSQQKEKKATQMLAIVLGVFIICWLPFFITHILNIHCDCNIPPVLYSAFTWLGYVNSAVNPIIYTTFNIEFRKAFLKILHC

The target in test [3] is T2, human recombinant serotonin (5-Hydroxytryptamine) 5-HT2A receptor (Homo sapiens, UniProt P28223).
T2 construct: expressed in transfected cells; host or cells: Chinese hamster ovary (CHO-K1) cells
T2 sequence (P28223 whole entry): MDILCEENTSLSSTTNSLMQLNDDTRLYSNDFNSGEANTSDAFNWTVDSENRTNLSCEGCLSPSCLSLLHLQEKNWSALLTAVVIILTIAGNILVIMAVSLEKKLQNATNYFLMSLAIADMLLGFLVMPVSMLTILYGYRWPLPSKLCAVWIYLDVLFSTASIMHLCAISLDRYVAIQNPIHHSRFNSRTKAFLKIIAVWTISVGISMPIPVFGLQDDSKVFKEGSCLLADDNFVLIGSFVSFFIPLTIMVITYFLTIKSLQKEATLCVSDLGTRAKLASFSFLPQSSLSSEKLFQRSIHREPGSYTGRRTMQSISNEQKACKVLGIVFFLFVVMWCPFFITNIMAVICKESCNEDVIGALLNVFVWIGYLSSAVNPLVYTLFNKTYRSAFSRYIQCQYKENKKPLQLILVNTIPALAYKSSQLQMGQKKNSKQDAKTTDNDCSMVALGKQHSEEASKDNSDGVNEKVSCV
In words: Serotonin 5-HT2A radioligand binding ([3H]Ketanserin). As to conditions: for inhibition at 1 µM: read-out: Inhibition of ligand binding, Serotonin 5-HT2A (percent inhibition of specific binding), compound at 1 μM. The procedure:
Compounds of the invention were incubated with 0.5 nM [^3H]Ketanserin for 60 min. at 25° C. Non-specific binding was estimated in the presence of 1 μM Mianserin. Receptor proteins were filtered and washed, the filters were then counted to determine [^3H]Ketanserin specifically bound.

The target of test [4] is T3, human recombinant serotonin (5-Hydroxytryptamine) 5-HT2C receptor (Homo sapiens, UniProt P28335).
T3 construct: expressed in transfected cells; host or cells: Chinese hamster ovary (CHO-K1) cells
T3 sequence (P28335 33-458): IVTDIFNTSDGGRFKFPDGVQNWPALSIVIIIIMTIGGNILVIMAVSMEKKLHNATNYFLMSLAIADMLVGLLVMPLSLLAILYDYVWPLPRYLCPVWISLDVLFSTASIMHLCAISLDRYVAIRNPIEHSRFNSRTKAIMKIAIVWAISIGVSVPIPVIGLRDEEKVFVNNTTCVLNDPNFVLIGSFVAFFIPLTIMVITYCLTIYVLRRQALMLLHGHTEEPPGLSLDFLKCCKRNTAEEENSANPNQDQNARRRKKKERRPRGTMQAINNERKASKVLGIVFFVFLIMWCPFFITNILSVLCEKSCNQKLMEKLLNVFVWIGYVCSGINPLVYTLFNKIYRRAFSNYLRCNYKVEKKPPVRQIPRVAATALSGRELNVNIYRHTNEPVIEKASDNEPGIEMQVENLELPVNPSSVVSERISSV
In words: Serotonin 5-HT2C radioligand binding ([3H]Mesulergine). Particulars: read-out: Inhibition of ligand binding, Serotonin 5-HT2C (percent inhibition of specific binding); for inhibition at 1 µM: compound at 1 μM. The procedure, abridged: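 Compounds tested at 1 μM or lower (1% DMSO vehicle) for displacement of 1 nM [3H]Mesulergine over 60 min at 25° C. Specific binding determined by filtration counting, with 1 μM Mianserin defining non-specific binding; values are percent inhibition.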

Test [5] addresses T4, human recombinant serotonin (5-Hydroxytryptamine) 5-HT6 receptor (Homo sapiens, UniProt P50406).
T4 construct: expressed in transfected cells; host or cells: human HeLa cells
In words: Serotonin 5-HT6 radioligand binding ([3H]LSD). Particulars: read-out: Inhibition of ligand binding, Serotonin 5-HT6 (percent inhibition of specific binding); for inhibition at 1 µM: compound at 1 μM. The procedure:
Compounds of the invention were incubated with 1.5 nM [3H]Lysergic acid diethylamide (LSD) for 120 min. at 37° C. […] Receptor proteins were filtered and washed, the filters were then counted to determine [3H]LSD specifically bound. Compounds were screened at 1 μM or lower, using 1% DMSO as vehicle. Biochemical assay results are presented as the percent inhibition of specific binding in Table 10.

Test [6] addresses human recombinant serotonin (5-Hydroxytryptamine) 5-HT7 receptor (Homo sapiens, UniProt P34969). In words: Serotonin 5-HT7 radioligand binding ([3H]LSD). As to conditions: compound at 1 μM; read-out: Inhibition of ligand binding, Serotonin 5-HT7 (percent inhibition of specific binding). From the text:
Receptor proteins were filtered and washed, the filters were then counted to determine [^3H]LSD specifically bound.

The mark [7] stands for this setting: percent inhibition of specific binding, read-out: Inhibition of ligand binding, Dopamine D2L.
The mark [8] stands for this setting: […] [3H]Spiperone, read-out: Inhibition of ligand binding, Dopamine D2L (percent inhibition of specific binding).

histamine receptor H1, sequence (P35367 whole entry): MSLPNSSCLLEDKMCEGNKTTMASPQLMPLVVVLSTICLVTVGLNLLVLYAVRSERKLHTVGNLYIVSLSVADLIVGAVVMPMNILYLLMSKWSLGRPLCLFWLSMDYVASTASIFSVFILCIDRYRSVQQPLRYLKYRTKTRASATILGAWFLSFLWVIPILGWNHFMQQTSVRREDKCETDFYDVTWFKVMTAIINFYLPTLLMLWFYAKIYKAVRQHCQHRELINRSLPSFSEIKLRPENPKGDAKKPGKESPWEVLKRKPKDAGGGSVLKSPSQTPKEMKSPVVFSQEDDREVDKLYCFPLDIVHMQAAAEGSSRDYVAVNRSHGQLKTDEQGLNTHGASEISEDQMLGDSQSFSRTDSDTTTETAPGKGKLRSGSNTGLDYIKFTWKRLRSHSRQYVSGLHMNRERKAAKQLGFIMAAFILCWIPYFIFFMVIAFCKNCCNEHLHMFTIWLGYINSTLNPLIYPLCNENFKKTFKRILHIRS
T1 sequence (P25021 whole entry): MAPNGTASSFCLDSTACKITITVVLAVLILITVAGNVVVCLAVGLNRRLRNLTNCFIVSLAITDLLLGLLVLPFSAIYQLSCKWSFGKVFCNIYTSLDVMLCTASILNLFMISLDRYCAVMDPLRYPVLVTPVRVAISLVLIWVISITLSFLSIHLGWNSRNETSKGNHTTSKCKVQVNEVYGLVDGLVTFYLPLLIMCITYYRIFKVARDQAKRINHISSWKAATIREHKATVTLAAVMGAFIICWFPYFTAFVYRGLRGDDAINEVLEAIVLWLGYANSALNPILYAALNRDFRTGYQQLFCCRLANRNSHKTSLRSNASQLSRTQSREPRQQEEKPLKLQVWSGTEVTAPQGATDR
T4 sequence (P50406 whole entry): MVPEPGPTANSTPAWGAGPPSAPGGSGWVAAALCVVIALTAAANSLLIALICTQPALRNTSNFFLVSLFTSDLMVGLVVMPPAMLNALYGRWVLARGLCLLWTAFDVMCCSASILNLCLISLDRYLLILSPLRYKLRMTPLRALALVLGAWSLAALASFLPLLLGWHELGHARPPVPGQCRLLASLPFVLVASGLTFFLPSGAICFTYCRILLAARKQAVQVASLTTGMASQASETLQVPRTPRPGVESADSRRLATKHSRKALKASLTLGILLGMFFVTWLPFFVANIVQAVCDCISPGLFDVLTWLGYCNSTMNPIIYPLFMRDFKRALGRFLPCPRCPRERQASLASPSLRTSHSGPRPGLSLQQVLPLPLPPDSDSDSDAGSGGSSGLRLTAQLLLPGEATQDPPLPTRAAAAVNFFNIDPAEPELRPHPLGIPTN
human recombinant serotonin (5-Hydroxytryptamine) 5-HT7 receptor, sequence (P34969 whole entry): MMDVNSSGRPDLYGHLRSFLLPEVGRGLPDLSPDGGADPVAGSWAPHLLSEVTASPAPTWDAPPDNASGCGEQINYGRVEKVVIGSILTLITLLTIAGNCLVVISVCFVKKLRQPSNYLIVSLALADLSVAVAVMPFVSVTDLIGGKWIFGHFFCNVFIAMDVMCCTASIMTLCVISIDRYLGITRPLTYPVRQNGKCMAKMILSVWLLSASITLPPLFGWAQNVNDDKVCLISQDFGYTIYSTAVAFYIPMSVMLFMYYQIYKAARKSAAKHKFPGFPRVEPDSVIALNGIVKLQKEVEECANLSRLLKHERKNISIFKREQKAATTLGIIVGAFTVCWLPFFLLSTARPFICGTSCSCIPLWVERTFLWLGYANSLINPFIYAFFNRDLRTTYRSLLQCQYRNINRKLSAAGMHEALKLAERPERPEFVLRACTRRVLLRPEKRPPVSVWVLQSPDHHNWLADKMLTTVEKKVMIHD

The term inhibition denotes the relative decrease from the control value, in per cent. For `C/C(=C/n1c2c(c3cc(C)ccc31)CN(C)CC2)c1cccc(F)c1` [Compound 225, (Z)-5-(2-(3-fluorophenyl)prop-1-enyl)-2,8-dimethyl-2,3,4,5-tetrahydro-1H-pyrido[4,3-b]indole], the inhibition at 1 µM was 81% on histamine receptor H1; 98% in test [1]; 43% in test [2] (setting [7]); 99% in test [3]; 100% in test [4]; 103% in test [5]. In addition, the inhibition at 1 µM in test [6] amounted to 94%.

Turning to `COc1ccc(C#Cn2c3c(c4cc(C)ccc42)CN(C)CC3)cc1F` [Compound No. 485, 5-((3-fluoro-4-methoxyphenyl)ethynyl)-2,8-dimethyl-2,3,4,5-tetrahydro-1H-pyrido[4,3-b]indole], the inhibition at 1 µM on histamine receptor H1 was -6%; in test [1], 97%; in test [2] (setting [8]) it was 14%; in test [3] it was 96%; in test [4], 102%; in test [5], 89%. In addition, in test [6], the inhibition at 1 µM came out at 77%.

As to `C=C(Cn1c2c(c3cccc(Cl)c31)CN(C)CC2)c1ccc(F)cc1` [Compound No. 354, 6-chloro-5-(2-(4-fluorophenyl)allyl)-2-methyl-2,3,4,5-tetrahydro-1H-pyrido[4,3-b]indole], the inhibition at 1 µM worked out at 86% on histamine receptor H1; 97% in test [1]; 98% in test [2] (setting [8]); 100% in test [3]; 101% in test [4]; 103% in test [5]. The inhibition at 1 µM in test [6] worked out at 75%.

With `C/C(=C\n1c2c(c3cc(C)ccc31)CN(C)CC2)c1cc(Cl)cc(Cl)c1` [Compound 218, (E)-5-(2-(3,5-dichlorophenyl)prop-1-enyl)-2,8-dimethyl-2,3,4,5-tetrahydro-1H-pyrido[4,3-b]indole], on histamine receptor H1 (1 μM), the “Histamine Binding (1 μM) H1, percent inhibition of specific binding” value is 78% and 79%. The inhibition at 1 µM in test [1] is 98%; in test [2] (setting [7]) it was 40%; in test [3], 99%; in test [4], 96%; in test [5], 99%; in test [6], 93%. Moreover, the “Inhibition of ligand binding, Dopamine D2L” value in test [2] (percent inhibition of specific binding, 1 µM) is reported as 43%. Further, the inhibition at 0.1 µM is 94% in test [3] (read-out: Inhibition of ligand binding, Serotonin 5-HT2A (percent inhibition of specific binding), compound at 0.1 μM); 92% in test [4] (compound at 0.1 μM); 85% in test [5] (compound at 0.1 μM).

As to `C/C(=C/n1c2c(c3cc(C)ccc31)CN(C)CC2)c1cc(F)c(F)cc1Cl` [Compound 220, (Z)-5-(2-(2-chloro-4,5-difluorophenyl)prop-1-enyl)-2,8-dimethyl-2,3,4,5-tetrahydro-1H-pyrido[4,3-b]indole], the inhibition at 1 µM at histamine receptor H1 was 91%; in test [1], 99%; in test [2] (setting [7]), 32%; in test [3], 99%; in test [4] it was 98%; in test [5], 99%. Further, the inhibition at 1 µM in test [6] is 104%.

Regarding `C=C(Cn1c2c(c3cc(OC)ccc31)CN(C)CC2)c1ccncc1` [Compound No. 356, 8-methoxy-2-methyl-5-(2-(pyridin-4-yl)allyl)-2,3,4,5-tetrahydro-1H-pyrido[4,3-b]indole], the inhibition at 1 µM at histamine receptor H1 was found to be 70%; in test [1] it was 17%; in test [2] (setting [8]), 37%; in test [3] it was 81%; in test [4], 83%; in test [5] it was 90%. Further, in test [6], the inhibition at 1 µM came out at 60%.

For the compound `C/C(=C\n1c2c(c3cc(Cl)ccc31)CN(C)CC2)c1cccnc1` [Compound 86, (E)-8-chloro-2,3,4,5-tetrahydro-2-methyl-5-(2-(pyridin-3-yl)prop-1-enyl)-1H-pyrido[4,3-b]indole], the inhibition at 1 µM on histamine receptor H1 came out at 72%; in test [1], 54%; in test [2] (setting [7]), 40%; in test [3], 95%; in test [4], 94%; in test [5], 77%. Besides, the inhibition at 1 µM in test [6] was determined as 93%.

Turning to `COc1ccc(/C(C)=C/n2c3c(c4cc(C)ccc42)CN(C)CC3)cc1F` [Compound 214, (E)-5-(2-(3-fluoro-4-methoxyphenyl)prop-1-enyl)-2,8-dimethyl-2,3,4,5-tetrahydro-1H-pyrido[4,3-b]indole], the inhibition at 1 µM at histamine receptor H1 came to 23%; in test [1] it was 100%; in test [2] (setting [7]), 83%; in test [3], 93%; in test [4] it was 95%; in test [5], 94%. In addition, the inhibition at 1 µM in test [6] worked out at 97%.

Consider `COc1ccc2c(c1)c1c(n2/C=C(\C)c2ccncc2)CCN(C)C1` [Compound 246, (E)-8-methoxy-2-methyl-5-(2-(pyridin-4-yl)prop-1-enyl)-2,3,4,5-tetrahydro-1H-pyrido[4,3-b]indole], for which the inhibition at 1 µM on histamine receptor H1 was 7%; in test [1], 29%; in test [2] (setting [7]), 57%; in test [3] it was 97%; in test [4], 94%; in test [5], 104%. For the same compound, in test [6], the inhibition at 1 µM came to 88%.

As for `C/C(=C\n1c2c(c3c(Cl)c(Cl)ccc31)CN(C)CC2)c1ccncc1` [Compound 245, (E)-8,9-dichloro-2-methyl-5-(2-(pyridin-4-yl)prop-1-enyl)-2,3,4,5-tetrahydro-1H-pyrido[4,3-b]indole], the inhibition at 1 µM on histamine receptor H1 was found to be 60%; in test [1], 71%; in test [2] (setting [7]) it was 92%; in test [3], 102%; in test [4] it was 96%; in test [5] it was 103%. Also, the inhibition at 1 µM in test [6] was determined as 74%.

Consider `C/C(=C\n1c2c(c3c(Cl)c(Cl)ccc31)CN(C)CC2)c1ccc(F)cc1` [Compound 232, (E)-8,9-dichloro-5-(2-(4-fluorophenyl)prop-1-enyl)-2-methyl-2,3,4,5-tetrahydro-1H-pyrido[4,3-b]indole], for which the inhibition at 1 µM at histamine receptor H1 is 71%; in test [1], 95%; in test [2] (setting [7]) it was 91%; in test [3], 99%; in test [4], 98%; in test [5] it was 103%. In test [6], the inhibition at 1 µM is 84%.
